Assay results published in ChEMBL document CHEMBL1133232, “The design and synthesis of thrombin inhibitors: analogues of MD805 containing non-polar surrogates for arginine at the P1 position” (Bioorg Med Chem Lett, 2000).

Assays:
[1] = biological target: Prothrombin (Homo sapiens, UniProt P00734); test: Compound was evaluated for its inhibitory activity against Thrombin
[2] = biological target: Coagulation factor X (Homo sapiens, UniProt P00742); test: Compound was evaluated for its inhibitory activity against Coagulation factor X
[3] = biological target: Plasminogen (Homo sapiens, UniProt P00747); test: Compound was evaluated for its inhibitory activity against plasmin
[4] = biological target: Serine protease 1 (Homo sapiens, UniProt P07477); test: Compound was evaluated for its inhibitory activity against Trypsin
[5] = biological target: Kallikrein-1 (Homo sapiens, UniProt P06870); test: Compound was evaluated for its inhibitory activity against kallikrein
Sequence of Kallikrein-1 (P06870 whole entry): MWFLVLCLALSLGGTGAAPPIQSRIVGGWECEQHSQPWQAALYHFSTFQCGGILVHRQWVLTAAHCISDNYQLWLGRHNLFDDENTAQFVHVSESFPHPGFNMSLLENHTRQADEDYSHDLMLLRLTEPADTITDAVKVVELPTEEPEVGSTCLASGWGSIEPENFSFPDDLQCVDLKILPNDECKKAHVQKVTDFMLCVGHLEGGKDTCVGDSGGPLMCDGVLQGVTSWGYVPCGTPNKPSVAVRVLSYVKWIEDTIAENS

Sequence of Serine protease 1 (P07477 whole entry): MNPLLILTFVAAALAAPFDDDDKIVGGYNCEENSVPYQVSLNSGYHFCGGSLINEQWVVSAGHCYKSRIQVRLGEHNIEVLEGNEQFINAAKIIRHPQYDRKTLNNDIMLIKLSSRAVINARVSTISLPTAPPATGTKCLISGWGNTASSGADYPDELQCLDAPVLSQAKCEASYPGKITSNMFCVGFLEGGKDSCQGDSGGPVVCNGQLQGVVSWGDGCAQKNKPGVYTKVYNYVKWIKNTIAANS
Sequence of Plasminogen (P00747 97-580 limits assumed): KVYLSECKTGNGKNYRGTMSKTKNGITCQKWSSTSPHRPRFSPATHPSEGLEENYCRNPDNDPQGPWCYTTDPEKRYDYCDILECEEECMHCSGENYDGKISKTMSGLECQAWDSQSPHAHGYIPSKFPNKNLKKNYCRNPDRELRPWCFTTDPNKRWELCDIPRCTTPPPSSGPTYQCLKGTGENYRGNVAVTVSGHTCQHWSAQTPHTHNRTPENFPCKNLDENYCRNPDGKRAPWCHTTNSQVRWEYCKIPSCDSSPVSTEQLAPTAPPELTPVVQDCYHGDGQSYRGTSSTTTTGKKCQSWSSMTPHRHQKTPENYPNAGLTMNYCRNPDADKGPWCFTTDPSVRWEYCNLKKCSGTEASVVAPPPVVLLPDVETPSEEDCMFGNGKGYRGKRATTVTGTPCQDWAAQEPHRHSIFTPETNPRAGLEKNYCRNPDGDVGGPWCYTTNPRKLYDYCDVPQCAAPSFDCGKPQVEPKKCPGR
Sequence of Plasminogen (P00747 581-810 limits assumed): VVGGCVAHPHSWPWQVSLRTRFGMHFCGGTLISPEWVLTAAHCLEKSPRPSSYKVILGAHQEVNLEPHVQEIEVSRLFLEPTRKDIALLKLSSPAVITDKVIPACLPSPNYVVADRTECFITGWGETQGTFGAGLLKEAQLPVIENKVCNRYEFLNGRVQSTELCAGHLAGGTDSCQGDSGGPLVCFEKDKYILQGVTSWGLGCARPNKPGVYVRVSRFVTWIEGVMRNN
Sequence of Coagulation factor X (P00742 41-179 limits assumed): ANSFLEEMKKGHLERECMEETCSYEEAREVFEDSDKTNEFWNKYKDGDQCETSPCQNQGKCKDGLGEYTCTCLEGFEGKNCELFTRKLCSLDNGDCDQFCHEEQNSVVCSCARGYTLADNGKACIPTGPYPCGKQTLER
Sequence of Coagulation factor X (P00742 235-488 limits assumed): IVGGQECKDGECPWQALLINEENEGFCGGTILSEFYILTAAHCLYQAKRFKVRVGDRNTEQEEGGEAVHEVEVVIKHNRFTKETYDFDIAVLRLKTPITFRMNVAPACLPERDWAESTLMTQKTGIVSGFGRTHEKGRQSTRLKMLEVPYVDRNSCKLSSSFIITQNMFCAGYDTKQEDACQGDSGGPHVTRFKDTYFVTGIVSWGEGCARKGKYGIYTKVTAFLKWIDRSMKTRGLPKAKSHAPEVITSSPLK

SMILES	Ki [1]	Ki [2]	Ki [3]	Ki [4]	Ki [5]
CC1(C)CNc2c(cccc2S(=O)(=O)N[C@@H](CSCCCN)C(=O)N2CCC(CCF)CC2)C1	0.126 µM	87 µM	4 µM	1.32 µM	> 87 µM
CC1(C)CNc2c(cccc2S(=O)(=O)N[C@@H](CSCCCN)C(=O)N2CCC(CCO)CC2)C1	0.28 µM	87 µM	6.2 µM	1.78 µM	> 87 µM
CC1(C)CNc2c(cccc2S(=O)(=O)NC(Cc2nc3ccncc3s2)C(=O)N2CCC(CCF)CC2)C1 (centres undefined)	0.81 µM	–	–	–	–
CCC1CCN(C(=O)C(Cc2nc3ccccc3s2)NS(=O)(=O)c2cccc3c2NCC(C)(C)C3)CC1 (centres undefined)	0.248 µM	92 µM	240 µM	260 µM	92 µM
CC1CNc2c(cccc2S(=O)(=O)N[C@@H](Cc2c[nH]c3ccccc23)C(=O)N2CCC(CCO)CC2)C1 (some centres undefined)	1.57 µM	–	–	–	–
CC1(C)CNc2c(cccc2S(=O)(=O)NC(Cc2nc3ccccc3s2)C(=O)N2CCC(CCF)CC2)C1 (stereo in doubt)	0.028 µM	–	–	–	–
CC1CNc2c(cccc2S(=O)(=O)N[C@@H](Cc2nc3ccccc3s2)C(=O)N2CCC(CCO)CC2)C1 (stereo in doubt; 23)	0.118 µM	–	–	–	–
CC1CNc2c(cccc2S(=O)(=O)N[C@@H](Cc2nc3ccccc3s2)C(=O)N2CCC(CCO)CC2)C1 (stereo in doubt; 33)	0.118 µM	45 µM	109 µM	126 µM	> 45 µM

More lines, in order of falling Ki [1], values ahead:

Ki [1]	SMILES	Ki [2]	Ki [3]	Ki [4]	Ki [5]
47.3 µM	CC1CNc2c(cccc2S(=O)(=O)N[C@@H](CCc2ccccc2)C(=O)N2CCC(CCO)CC2)C1 (some centres undefined)	–	–	–	–
19.6 µM	CC1(C)CNc2c(cccc2S(=O)(=O)N[C@@H](Cc2cccnc2)C(=O)N2CCC(CCO)CC2)C1	–	–	–	–
4.56 µM	CC1(C)CNc2c(cccc2S(=O)(=O)NC(Cc2nc3cncnc3s2)C(=O)N2CCC(CCF)CC2)C1 (centres undefined)	–	–	–	–
3.28 µM	CC1(C)CNc2c(cccc2S(=O)(=O)NC(Cc2nc(-c3ccccc3)cs2)C(=O)N2CCC(CCO)CC2)C1 (centres undefined)	–	–	–	–
3.1 µM	CC1CNc2c(cccc2S(=O)(=O)N[C@@H](Cc2nc3ccccc3o2)C(=O)N2CCC(CCO)CC2)C1 (some centres undefined)	–	–	–	–
2.19 µM	Cc1csc(CC(NS(=O)(=O)c2cccc3c2NCC(C)(C)C3)C(=O)N2CCC(CCO)CC2)n1 (centres undefined)	–	–	–	–
0.76 µM	CC1(C)CNc2c(cccc2S(=O)(=O)NC(Cc2nc(CN)cs2)C(=O)N2CCC(CCO)CC2)C1 (centres undefined)	–	–	–	–
0.452 µM	CC(=O)OCCC1CCN(C(=O)C(Cc2nc3ccccc3[nH]2)NS(=O)(=O)c2cccc3c2NCC(C)(C)C3)CC1 (centres undefined)	–	–	–	–
0.0798 µM	CC1(C)CNc2c(cccc2S(=O)(=O)NC(Cc2nc3ccccc3s2)C(=O)N2CCC(CCO)CC2)C1 (centres undefined)	–	–	–	–
0.026 µM	CC1(C)CNc2c(cccc2S(=O)(=O)NC(Cc2nc3ccccc3s2)C(=O)N2CCC(CCF)CC2)C1 (stereo in doubt; 26)	–	–	–	–
